Source: patent publication US11254686B1 (Corvus Pharmaceuticals, Inc., priority 2017, dated 2022)

Assays:
adenosine A2B receptor = adenosine A2B receptor (Homo sapiens (Human), UniProt P29275); assay: Adenosine receptor activity assay (Table 1), A2B activity; assay type: biochemical; details: for Ratio: A2A activity to A2B activity (A2A/A2B); for IC50: read-out: Ave A2B cAMP IC50
adenosine A2A receptor = adenosine A2A receptor (Homo sapiens (Human), UniProt P29274); assay: Adenosine receptor activity assay (Table 1), A2A activity; assay type: biochemical; details: read-out: Ave A2A cAMP IC50
adenosine A2A receptor, sequence (P29274 whole entry): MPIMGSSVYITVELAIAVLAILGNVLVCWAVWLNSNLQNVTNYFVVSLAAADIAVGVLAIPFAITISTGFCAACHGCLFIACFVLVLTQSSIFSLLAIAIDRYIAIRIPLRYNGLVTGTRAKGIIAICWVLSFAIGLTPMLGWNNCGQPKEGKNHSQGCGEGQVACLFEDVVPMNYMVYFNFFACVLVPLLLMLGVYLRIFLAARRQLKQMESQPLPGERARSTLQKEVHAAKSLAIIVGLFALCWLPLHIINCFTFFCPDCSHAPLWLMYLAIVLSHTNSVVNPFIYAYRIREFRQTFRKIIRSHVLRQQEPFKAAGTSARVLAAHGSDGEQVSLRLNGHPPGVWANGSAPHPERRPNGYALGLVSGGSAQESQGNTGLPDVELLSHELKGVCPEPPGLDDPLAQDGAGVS

adenosine A2B receptor, sequence (P29275 whole entry): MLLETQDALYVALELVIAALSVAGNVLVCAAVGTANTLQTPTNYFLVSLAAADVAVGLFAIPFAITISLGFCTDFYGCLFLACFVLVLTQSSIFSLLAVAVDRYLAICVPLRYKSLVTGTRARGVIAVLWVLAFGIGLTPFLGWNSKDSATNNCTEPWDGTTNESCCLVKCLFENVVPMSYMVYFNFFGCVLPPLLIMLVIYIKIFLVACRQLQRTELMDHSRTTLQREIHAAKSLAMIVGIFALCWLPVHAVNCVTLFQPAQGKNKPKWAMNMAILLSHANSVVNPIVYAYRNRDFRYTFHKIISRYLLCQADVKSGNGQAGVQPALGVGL

Ratio (adenosine A2B receptor) | IC50 (adenosine A2B receptor) [nM] | IC50 (adenosine A2A receptor) [nM] | SMILES
1.00 | > 500 | > 500 | COc1ccc(CNc2nc(C(=O)N3CCCC3)c3sccc3n2)cc1OC [Example Z38, (2-((3,4-Dimethoxybenzyl)amino)thieno[3,2-d]pyrimidin-4-yl)(pyrrolidin-1-yl)methanone]
1.22 | 100 to 500 | 100 to 500 | O=C(c1nc(NCc2ccccc2)nc2ccsc12)N1CCCC1 [Example Z39, (2-(Benzylamino)thieno[3,2-d]pyrimidin-4-yl)(pyrrolidin-1-yl)methanone]
21.05 | 100 to 500 | > 500 | O=C(c1nc(NCc2ccccc2)nc2ccsc12)N1CC[C@H](O)C1 [Example Z40, (S)-(2-(Benzylamino)thieno[3,2-d]pyrimidin-4-yl)(3-hydroxypyrrolidin-1-yl)methanone]
1.00 | > 500 | > 500 | CCN(CC)C(=O)c1nc(N[C@@H](C)c2cccnc2)nc2ccsc12 [Example Z41, (S)—N,N-Diethyl-2-((1-(pyridin-3-yl)ethyl)amino)thieno[3,2-d]pyrimidine-4-carboxamide]
33.44 | 100 to 500 | > 500 | O=C(c1nc(NCc2cccnn2)nc2ccsc12)N1CCCC1 [Example Z43, (2-((Pyridazin-3-ylmethyl)amino)thieno[3,2-d]pyrimidin-4-yl)(pyrrolidin-1-yl)methanone]
44.44 | 100 to 500 | > 500 | CC(NC(=O)c1nc(NC(C)c2cccnc2)nc2ccsc12)c1cccnc1 (stereo not drawn) [Example Z44, N-(1-(Pyridin-3-yl)ethyl)-2-((1-(pyridin-3-yl)ethyl)amino)thieno[3,2-d]pyrimidine-4-carboxamide]
1.00 | > 500 | > 500 | Cc1cncc(CNC(=O)c2nc(NCc3cncc(C)c3)nc3ccsc23)c1 [Example Z45, N-((5-Methylpyridin-3-yl)methyl)-2-(((5-methylpyridin-3-yl)methyl)amino)thieno[3,2-d]pyrimidine-4-carboxamide]
30.80 | 100 to 500 | > 500 | C[C@H](Nc1nc(C(=O)N2CCC[C@@H]2CO)c2sccc2n1)c1cccnc1 [Example Z46, ((R)-2-(Hydroxymethyl)pyrrolidin-1-yl)(2-(((S)-1-(pyridin-3-yl)ethyl)amino)thieno[3,2-d]pyrimidin-4-yl)methanone]
1.00 | > 500 | > 500 | C[C@H](Nc1nc(C(=O)N2CCC[C@H]2CO)c2sccc2n1)c1cccnc1 [Example Z47, ((S)-2-(Hydroxymethyl)pyrrolidin-1-yl)(2-(((S)-1-(pyridin-3-yl)ethyl)amino)thieno[3,2-d]pyrimidin-4-yl)methanone]
9.26 | 10 to 50 | 100 to 500 | CC(Nc1nc(C(=O)N2CC[C@@H](F)C2)c2sccc2n1)c1cccnc1 (stereo partly drawn) [Example Z48, ((R)-3-Fluoropyrrolidin-1-yl)(2-((1-(pyridin-3-yl)ethyl)amino)thieno[3,2-d]pyrimidin-4-yl)methanone]
0.62 | 100 to 500 | 100 to 500 | COc1ccc(CNC(=O)c2nc(NC(C)c3ccccn3)nc3ccsc23)cn1 (stereo not drawn) [Example Z49, N-((6-Methoxypyridin-3-yl)methyl)-2-((1-(pyridin-2-yl)ethyl)amino)thieno[3,2-d]pyrimidine-4-carboxamide]
0.40 | 100 to 500 | 100 to 500 | O=C(NCc1ccccc1)c1nc(NCc2ccccc2)nc2ccsc12 [Example Z51, N-Benzyl-2-(benzylamino)thieno[3,2-d]pyrimidine-4-carboxamide]
50.76 | 100 to 500 | > 500 | Cc1cncc(CNc2nc(C(=O)N3CC[C@H](O)C3)c3sccc3n2)c1 [Example Z56, (S)-(3-Hydroxypyrrolidin-1-yl)(2-(((5-methylpyridin-3-yl)methyl)amino)thieno[3,2-d]pyrimidin-4-yl)methanone]
